According to patent US20030180957A1, “Target and method” (Sense Proteomic Limited, priority 2001, published 2003):

Molecular target: Neutravidin (Gallus gallus, UniProt P02701)
Experiment: surface capture of BSA-biotin on Neutravidin coated MALDI target, competition by free biotin
Format: binding
Conditions: MALDI target coated with PLL-PEG-biotin and Neutravidin; MALDI mass spectrum readout
Excerpt: The specificity of the surface capture was confirmed with the following experiments. BSA-Biotin was deposited on the MALDI target without Neutravidin or without the Biotin layer. BSA-Biotin was not detected in either case. Furthermore, binding of BSA-biotin to the Neutravidin coated surface is inhibited by the presence of free biotin. The database search results for BSA-biotin are presented in the appendix A.
MALDI targets are cleaned before use with acetone, acetonitrile, double distilled water and dried under nitrogen. Each position on the MALDI target is coated with 500 nanoliter 1%PLL-PEG-2%Biotin solution dissolved in desalting buffer. The target is then placed in a humid chamber for one hour at room temperature. Unbound PLL-PEG is rinsed with […] washing buffer followed by two washes with […] washing buffer. The target surface is dried under nitrogen. The PLL-PEG coating is then overlaid with 500 nanoliter of 0.5 mg/ml Neutravidin at each position of the array, incubated for one hour at RT in a humid chamber, rinsed with washing buffer, washed twice with […] washing buffer and dried under nitrogen. THE MALDI target is now ready to be used as a highly specific affinity capture surface. […]

Sequence of Neutravidin (P02701 25-152): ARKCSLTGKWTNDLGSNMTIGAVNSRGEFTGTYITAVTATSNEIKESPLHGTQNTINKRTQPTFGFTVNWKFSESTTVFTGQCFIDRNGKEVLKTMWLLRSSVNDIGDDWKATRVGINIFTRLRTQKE

SMILES: O=C(O)CCCC[C@@H]1SC[C@@H]2NC(=O)N[C@@H]21 [biotin]
- binding of BSA-biotin to the Neutravidin coated surface in the presence of free biotin: inhibited
